Measured values from ChEMBL document CHEMBL3885861, “Open TG-GATES”.

Species on record: Rattus norvegicus
Test: Open TG-GATES - Regimen: Daily Repeat
Type: toxicity, organism-based, Sprague-Dawley
Parameters: regimen Daily Repeat, gender Male, age 6 weeks
Settings: in vivo, po, route gavage; for APTT / Bas / Eos / Fbg / Hb / Ht / Lym / MCH / MCHC / MCV / Mono / Neu / PT / Plat / RBC / Ret / WBC: tissue Blood; for KIDNEY_L / KIDNEY_R / KIDNEY_TOTAL: tissue Kidney; for LIVER: tissue Liver; for A/G / ALP / ALT / AST / BUN / CRE / Ca / Cl / DBIL / GLC / IP / K / LDH / Na / PL / RALB / TBIL / TC / TG / TP / gamma-GTP: tissue Plasma
[1] = 60 mg/kg, 72 h, dose level Middle, time 3 day
[2] = 60 mg/kg, […], dose level Middle, time 7 day
[3] = 60 mg/kg, […], dose level Middle, time 14 day
[4] = 60 mg/kg, […], dose level Middle, time 28 day
[5] = 200 mg/kg, 72 h, dose level High, time 3 day
[6] = 200 mg/kg, […], dose level High, time 7 day
[7] = 200 mg/kg, […], dose level High, time 14 day
[8] = 200 mg/kg, […], dose level High, time 28 day

Cn1c(=O)c2[nH]cnc2n(C)c1=O.O [THEOPHYLLINE]
TERMINAL_BW [1]: 242.6 g
APTT [1]: 21.7 s
Bas [1]: 0%
Eos [1]: 0.6%
Fbg [1]: 303.4 mg/dL
Hb [1]: 13.4 g/dL
Ht [1]: 40.4%
Lym [1]: 78.4%
MCH [1]: 20.8 pg
MCHC [1]: 33.2%
MCV [1]: 62.8 fL
Mono [1]: 3.2%
Neu [1]: 16.4%
PT [1]: 15.5 s
Plat [1]: 123.5 x10_4/uL
RBC [1]: 644.2 x10_4/ul
Ret [1]: 7.4%
WBC [1]: 126 x10_2/uL
KIDNEY_L [1]: 1 g
KIDNEY_R [1]: 1.1 g
KIDNEY_TOTAL [1]: 2.1 g
LIVER [1]: 10.8 g
A/G [1]: 1.2
ALP [1]: 1599.4 IU/L
ALT [1]: 44.2 IU/L
AST [1]: 69.2 IU/L
BUN [1]: 14.8 mg/dL
CRE [1]: 0.2 mg/dL
Ca [1]: 10.7 mg/dL
Cl [1]: 106.2 meq/L
DBIL [1]: 0 mg/dL
GLC [1]: 186 mg/dL
IP [1]: 8.4 mg/dL
K [1]: 4.2 meq/L
LDH [1]: 146.6 IU/L
Na [1]: 142 meq/L
PL [1]: 132.8 mg/dL
RALB [1]: 2.9 g/dL
TBIL [1]: 0.004 mg/dL
TC [1]: 80.4 mg/dL
TG [1]: 75 mg/dL
TP [1]: 5.3 g/dL
gamma-GTP [1]: 1.4 IU/L
TERMINAL_BW [2]: 265.8 g
TERMINAL_BW [3]: 313.9 g
TERMINAL_BW [4]: 384.1 g
APTT [2]: 23.4 s
Bas [2]: 0%
Eos [2]: 0.8%
Fbg [2]: 299.4 mg/dL
Hb [2]: 13.9 g/dL
Ht [2]: 40.6%
Lym [2]: 79%
MCH [2]: 21.2 pg
MCHC [2]: 34.2%
MCV [2]: 61.9 fL
Mono [2]: 2.8%
Neu [2]: 16.2%
PT [2]: 15.4 s
Plat [2]: 109.7 x10_4/uL
RBC [2]: 655.8 x10_4/ul
Ret [2]: 5.4%
WBC [2]: 123.4 x10_2/uL
APTT [3]: 24.1 s
Bas [3]: 0%
Eos [3]: 0.8%
Fbg [3]: 336.8 mg/dL
Hb [3]: 14.5 g/dL
Ht [3]: 42.9%
Lym [3]: 77.8%
MCH [3]: 20.6 pg
MCHC [3]: 33.9%
MCV [3]: 60.7 fL
Mono [3]: 2.4%
Neu [3]: 18%
PT [3]: 15.1 s
Plat [3]: 109.2 x10_4/uL
RBC [3]: 706.4 x10_4/ul
Ret [3]: 4.9%
WBC [3]: 119.3 x10_2/uL
APTT [4]: 25.6 s
Bas [4]: 0%
Eos [4]: 1%
Fbg [4]: 330.2 mg/dL
Hb [4]: 15.8 g/dL
Ht [4]: 45.7%
Lym [4]: 78%
MCH [4]: 19.8 pg
MCHC [4]: 34.5%
MCV [4]: 57.3 fL
Mono [4]: 3%
Neu [4]: 16.8%
PT [4]: 15.6 s
Plat [4]: 99.5 x10_4/uL
RBC [4]: 798 x10_4/ul
Ret [4]: 3.3%
WBC [4]: 104.8 x10_2/uL
KIDNEY_L [2]: 1.2 g
KIDNEY_R [2]: 1.2 g
KIDNEY_TOTAL [2]: 2.4 g
KIDNEY_L [3]: 1.3 g
KIDNEY_R [3]: 1.3 g
KIDNEY_TOTAL [3]: 2.6 g
KIDNEY_L [4]: 1.5 g
KIDNEY_R [4]: 1.5 g
KIDNEY_TOTAL [4]: 3 g
LIVER [2]: 11.6 g
LIVER [3]: 13.8 g
LIVER [4]: 16.3 g
A/G [2]: 1.2
ALP [2]: 1497.8 IU/L
ALT [2]: 42.2 IU/L
AST [2]: 77.6 IU/L
BUN [2]: 17.6 mg/dL
CRE [2]: 0.2 mg/dL
Ca [2]: 10.4 mg/dL
Cl [2]: 107 meq/L
DBIL [2]: 0 mg/dL
GLC [2]: 195.4 mg/dL
IP [2]: 7.8 mg/dL
K [2]: 4.3 meq/L
LDH [2]: 175.4 IU/L
Na [2]: 142.2 meq/L
PL [2]: 140.2 mg/dL
RALB [2]: 3 g/dL
TBIL [2]: 0.006 mg/dL
TC [2]: 72 mg/dL
TG [2]: 86.8 mg/dL
TP [2]: 5.6 g/dL
gamma-GTP [2]: 1.6 IU/L
A/G [3]: 1.1
ALP [3]: 1338.2 IU/L
ALT [3]: 43 IU/L
AST [3]: 73.8 IU/L
BUN [3]: 17 mg/dL
CRE [3]: 0.2 mg/dL
Ca [3]: 10.3 mg/dL
Cl [3]: 105.6 meq/L
DBIL [3]: 0 mg/dL
GLC [3]: 181 mg/dL
IP [3]: 8 mg/dL
K [3]: 4.1 meq/L
LDH [3]: 178 IU/L
Na [3]: 142.2 meq/L
PL [3]: 143.4 mg/dL
RALB [3]: 3.1 g/dL
TBIL [3]: 0.006 mg/dL
TC [3]: 79 mg/dL
TG [3]: 83.6 mg/dL
TP [3]: 5.8 g/dL
gamma-GTP [3]: 2.2 IU/L
A/G [4]: 1.1
ALP [4]: 1071.4 IU/L
ALT [4]: 40.8 IU/L
AST [4]: 67.8 IU/L
BUN [4]: 16.2 mg/dL
CRE [4]: 0.2 mg/dL
Ca [4]: 10.3 mg/dL
Cl [4]: 106 meq/L
DBIL [4]: 0 mg/dL
GLC [4]: 189.8 mg/dL
IP [4]: 7.4 mg/dL
K [4]: 4.1 meq/L
LDH [4]: 137.6 IU/L
Na [4]: 143.2 meq/L
PL [4]: 135.8 mg/dL
RALB [4]: 3.2 g/dL
TBIL [4]: 0.024 mg/dL
TC [4]: 71.2 mg/dL
TG [4]: 97.4 mg/dL
TP [4]: 6.1 g/dL
gamma-GTP [4]: 1.8 IU/L
TERMINAL_BW [5]: 221.1 g
APTT [5]: 22.1 s
Bas [5]: 0%
Eos [5]: 0.5%
Fbg [5]: 438.5 mg/dL
Hb [5]: 15 g/dL
Ht [5]: 44.8%
Lym [5]: 77.8%
MCH [5]: 21.1 pg
MCHC [5]: 33.5%
MCV [5]: 63 fL
Mono [5]: 3.8%
Neu [5]: 15.8%
PT [5]: 16.7 s
Plat [5]: 134.2 x10_4/uL
RBC [5]: 711.5 x10_4/ul
Ret [5]: 6.6%
WBC [5]: 107.4 x10_2/uL
KIDNEY_L [5]: 0.9 g
KIDNEY_R [5]: 0.9 g
KIDNEY_TOTAL [5]: 1.9 g
LIVER [5]: 9.5 g
A/G [5]: 1.2
ALP [5]: 1278.8 IU/L
ALT [5]: 42.5 IU/L
AST [5]: 73.2 IU/L
BUN [5]: 15.2 mg/dL
CRE [5]: 0.2 mg/dL
Ca [5]: 10.9 mg/dL
Cl [5]: 106.8 meq/L
DBIL [5]: 0 mg/dL
GLC [5]: 178.8 mg/dL
IP [5]: 7.3 mg/dL
K [5]: 4.3 meq/L
LDH [5]: 198.8 IU/L
Na [5]: 141.8 meq/L
PL [5]: 122.8 mg/dL
RALB [5]: 3.1 g/dL
TBIL [5]: 0.0075 mg/dL
TC [5]: 75 mg/dL
TG [5]: 37.8 mg/dL
TP [5]: 5.7 g/dL
gamma-GTP [5]: 1.5 IU/L
TERMINAL_BW [6]: 254.4 g
TERMINAL_BW [7]: 288.8 g
TERMINAL_BW [8]: 371.8 g
APTT [6]: 23 s
Bas [6]: 0%
Eos [6]: 0.2%
Fbg [6]: 354 mg/dL
Hb [6]: 14.6 g/dL
Ht [6]: 43%
Lym [6]: 67.4%
MCH [6]: 20.2 pg
MCHC [6]: 33.9%
MCV [6]: 59.7 fL
Mono [6]: 4.6%
Neu [6]: 26%
PT [6]: 16.7 s
Plat [6]: 117.7 x10_4/uL
RBC [6]: 720.6 x10_4/ul
Ret [6]: 6%
WBC [6]: 116.9 x10_2/uL
APTT [7]: 24.8 s
Bas [7]: 0%
Eos [7]: 0.2%
Fbg [7]: 337 mg/dL
Hb [7]: 15.5 g/dL
Ht [7]: 45.7%
Lym [7]: 77%
MCH [7]: 20.1 pg
MCHC [7]: 33.8%
MCV [7]: 59.5 fL
Mono [7]: 3.2%
Neu [7]: 18.2%
PT [7]: 16.1 s
Plat [7]: 102.3 x10_4/uL
RBC [7]: 767.8 x10_4/ul
Ret [7]: 4.7%
WBC [7]: 128.3 x10_2/uL
APTT [8]: 27.4 s
Bas [8]: 0%
Eos [8]: 1%
Fbg [8]: 349 mg/dL
Hb [8]: 16.1 g/dL
Ht [8]: 46.7%
Lym [8]: 76.5%
MCH [8]: 19.9 pg
MCHC [8]: 34.5%
MCV [8]: 57.7 fL
Mono [8]: 2.5%
Neu [8]: 19%
PT [8]: 16.6 s
Plat [8]: 91.7 x10_4/uL
RBC [8]: 810 x10_4/ul
Ret [8]: 3.6%
WBC [8]: 133.1 x10_2/uL
KIDNEY_L [6]: 1.1 g
KIDNEY_R [6]: 1.1 g
KIDNEY_TOTAL [6]: 2.1 g
KIDNEY_L [7]: 1.2 g
KIDNEY_R [7]: 1.3 g
KIDNEY_TOTAL [7]: 2.5 g
KIDNEY_L [8]: 1.4 g
KIDNEY_R [8]: 1.4 g
KIDNEY_TOTAL [8]: 2.8 g
LIVER [6]: 11.2 g
LIVER [7]: 11.7 g
LIVER [8]: 15.5 g
A/G [6]: 1.2
ALP [6]: 1736.2 IU/L
ALT [6]: 58.6 IU/L
AST [6]: 79 IU/L
BUN [6]: 16.6 mg/dL
CRE [6]: 0.2 mg/dL
Ca [6]: 10.8 mg/dL
Cl [6]: 104.2 meq/L
DBIL [6]: 0 mg/dL
GLC [6]: 173 mg/dL
IP [6]: 8.2 mg/dL
K [6]: 4.4 meq/L
LDH [6]: 182.6 IU/L
Na [6]: 142 meq/L
PL [6]: 134.6 mg/dL
RALB [6]: 3.3 g/dL
TBIL [6]: 0.01 mg/dL
TC [6]: 74 mg/dL
TG [6]: 65.6 mg/dL
TP [6]: 5.9 g/dL
gamma-GTP [6]: 2.2 IU/L
A/G [7]: 1.2
ALP [7]: 1300.2 IU/L
ALT [7]: 54 IU/L
AST [7]: 85 IU/L
BUN [7]: 13.8 mg/dL
CRE [7]: 0.2 mg/dL
Ca [7]: 10.4 mg/dL
Cl [7]: 104.8 meq/L
DBIL [7]: 0 mg/dL
GLC [7]: 175.5 mg/dL
IP [7]: 8.7 mg/dL
K [7]: 4.2 meq/L
LDH [7]: 137.2 IU/L
Na [7]: 141.8 meq/L
PL [7]: 128.8 mg/dL
RALB [7]: 3.2 g/dL
TBIL [7]: 0.02 mg/dL
TC [7]: 70.5 mg/dL
TG [7]: 64.2 mg/dL
TP [7]: 5.8 g/dL
gamma-GTP [7]: 2.2 IU/L
A/G [8]: 1.1
ALP [8]: 1103 IU/L
ALT [8]: 54 IU/L
AST [8]: 92.5 IU/L
BUN [8]: 16.5 mg/dL
CRE [8]: 0.2 mg/dL
Ca [8]: 10.8 mg/dL
Cl [8]: 105 meq/L
DBIL [8]: 0 mg/dL
GLC [8]: 186.5 mg/dL
IP [8]: 7.5 mg/dL
K [8]: 4.1 meq/L
LDH [8]: 140.5 IU/L
Na [8]: 143 meq/L
PL [8]: 133.5 mg/dL
RALB [8]: 3.3 g/dL
TBIL [8]: 0.025 mg/dL
TC [8]: 66 mg/dL
TG [8]: 90 mg/dL
TP [8]: 6.5 g/dL
gamma-GTP [8]: 2.5 IU/L
